The record followed here is patent publication US20220380368A1, “SPIROCYCLIC ANDROGEN RECEPTOR PROTEIN DEGRADERS” (THE REGENTS OF THE UNIVERSITY OF MICHIGAN, priority 2019, published 2022).

Like-named read-outs stand apart in the source and are kept apart here.

By AUC(0-t) is commonly meant exposure summed from dosing to a finite time, without extrapolation to infinity. The Cmax is the highest concentration seen after dosing. What is called Tmax is the time at which the peak concentration occurs.

The target of one data set is T1, AR protein (Homo sapiens, UniProt P10275).
T1 construct: endogenous in cells; host or cells: VCaP
T1 sequence (P10275 1-920): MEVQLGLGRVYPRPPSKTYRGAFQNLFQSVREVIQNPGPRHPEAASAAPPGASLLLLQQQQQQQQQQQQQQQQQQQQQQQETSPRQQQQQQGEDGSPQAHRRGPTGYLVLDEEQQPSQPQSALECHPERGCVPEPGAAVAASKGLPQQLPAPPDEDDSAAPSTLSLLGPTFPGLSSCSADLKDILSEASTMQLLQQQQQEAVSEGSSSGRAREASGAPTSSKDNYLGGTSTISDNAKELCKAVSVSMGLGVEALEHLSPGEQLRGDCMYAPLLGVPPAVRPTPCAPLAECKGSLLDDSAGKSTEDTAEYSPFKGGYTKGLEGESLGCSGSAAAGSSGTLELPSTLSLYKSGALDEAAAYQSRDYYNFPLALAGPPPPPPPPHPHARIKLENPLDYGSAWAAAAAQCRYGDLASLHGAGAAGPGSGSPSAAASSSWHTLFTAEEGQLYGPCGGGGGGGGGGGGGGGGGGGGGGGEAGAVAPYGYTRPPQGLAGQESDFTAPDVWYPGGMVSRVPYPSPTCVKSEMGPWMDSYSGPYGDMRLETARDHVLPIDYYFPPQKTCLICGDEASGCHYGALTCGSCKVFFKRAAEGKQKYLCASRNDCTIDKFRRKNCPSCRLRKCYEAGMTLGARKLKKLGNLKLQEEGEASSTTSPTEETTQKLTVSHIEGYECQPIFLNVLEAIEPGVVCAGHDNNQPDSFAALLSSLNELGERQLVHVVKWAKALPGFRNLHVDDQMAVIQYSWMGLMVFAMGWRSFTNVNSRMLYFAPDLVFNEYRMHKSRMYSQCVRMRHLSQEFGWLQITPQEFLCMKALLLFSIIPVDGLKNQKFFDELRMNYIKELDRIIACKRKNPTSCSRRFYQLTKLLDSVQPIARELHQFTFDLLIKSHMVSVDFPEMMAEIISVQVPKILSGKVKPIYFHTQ
In words: Western blotting analysis of AR protein levels in VCaP cells, band quantification, DC50/DC90. Format: cell-based. The method, then: The appropriate cell line, e.g., prostate cancer LNCaP, Vcap, or 22RV1 cell line, was treated with Compounds of the Disclosure as indicated. The treated cells were lysed with RIPA buffer. […] GAPDH was used as a loading control.
Bands were quantified with ImageJ software. The relative numbers of each band obtained from normalization with its corresponding GAPDH level were compared with Prism 8 software. The DC50 values were produced from Prism 8, and the DC90 values were calculated with an equation=Bottom+(Top−Bottom)/(1+10^((Log EC50−X)*HillSlope) based on DC50 and Hillslope values.
In general terms: Immunoblotting shows a protein as a band on a membrane.

Data set [1] is described as follows: Mouse PK studies after oral and IV dosing. The data set is classed as in vivo. Here is the method: The pharmacokinetics of representative Compounds of the Disclosure were determined after oral and IV dosing at the concentrations indicated in mouse (Table 7). […] The vehicles used in these studies are either (i) 10% PEG400+90% PBS (adjusted to pH to 8.0 by 0.5 N NaOH); or (ii) 100% PEG200.

[2] abbreviates: VCaP cells, Table 6; read-out: VCaP DC50.

With `C[C@H]1CC2(CCN(c3ccc(C(=O)N4CCN(C5CN(c6cc7c(cc6F)C(=O)N(C6CCC(=O)NC6=O)C7=O)C5)CC4)nn3)CC2)CN1c1ccc(C#N)c(Cl)c1` (stereo partly drawn) [Cpd. No. 501, 2-chloro-4-((3S)-8-(6-(4-(1-(2-(2,6-dioxopiperidin-3-yl)-6-fluoro-1,3-dioxoisoindolin-5-yl)azetidin-3-yl)piperazine-1-carbonyl)pyridazin-3-yl)-3-methyl-2,8-diazaspiro[4.5]decan-2-yl)benzonitrile], at AR protein (setting [2]), the DC50 was under 1 nM. As for `C[C@H]1CC2(CCN(c3ccc(C(=O)N4CCN(CC5CN(c6cc7c(cc6F)C(=O)N(C6CCC(=O)NC6=O)C7=O)C5)CC4)nn3)CC2)CN1c1ccc(C#N)c(Cl)c1` (stereo partly drawn) [Cpd. No. 503, 2-chloro-4-((3S)-8-(6-(4-((1-(2-(2,6-dioxopiperidin-3-yl)-6-fluoro-1,3-dioxoisoindolin-5-yl)azetidin-3-yl)methyl)piperazine-1-carbonyl)pyridazin-3-yl)-3-methyl-2,8-diazaspiro[4.5]decan-2-yl)benzonitrile], at AR protein (setting [2]), the DC50 is 1 to 10 nM. As to `C[C@H]1CC2(CCN(c3ccc(C(=O)N4CCN(C5CN(c6cc7c(cc6F)C(=O)N(C6CCC(=O)NC6=O)C7=O)C5)CC4)cn3)CC2)CN1c1ccc(C#N)c(Cl)c1` (stereo partly drawn) [Cpd. No. 504, 2-chloro-4-((3S)-8-(5-(4-(1-(2-(2,6-dioxopiperidin-3-yl)-6-fluoro-1,3-dioxoisoindolin-5-yl)azetidin-3-yl)piperazine-1-carbonyl)pyridin-2-yl)-3-methyl-2,8-diazaspiro[4.5]decan-2-yl)benzonitrile], the DC50 on AR protein (setting [2]) is under 1 nM. Consider `C[C@H]1CC2(CCN(c3ccc(C(=O)N4CCN(C5CN(c6cc7c(cc6F)C(=O)N(C6CCC(=O)NC6=O)C7=O)C5)CC4)cn3)CC2)CN1c1ccc(C#N)c(Cl)c1` (stereo partly drawn) [Cpd. No. 505, 2-chloro-4-((3S)-8-(5-(4-(1-(2-(2,6-dioxopiperidin-3-yl)-6-fluoro-1,3-dioxoisoindolin-5-yl)azetidin-3-yl)piperazine-1-carbonyl)pyridin-2-yl)-3-methyl-2,8-diazaspiro[4.5]decan-2-yl)benzonitrile], for which the DC50 on AR protein (read-out: VCaP DC50; VCaP cells, Table 6) is under 1 nM. For the compound `C[C@H]1CC2(CCN(c3ccc(C(=O)N4CCN(C5CN(c6cc7c(cc6F)C(=O)N(C6CCC(=O)NC6=O)C7=O)C5)CC4)cn3)CC2)CN1c1ccc(C#N)c(Cl)c1` (stereo partly drawn) [Cpd. No. 506, 2-chloro-4-((3S)-8-(5-(4-(1-(2-(2,6-dioxopiperidin-3-yl)-6-fluoro-1,3-dioxoisoindolin-5-yl)azetidin-3-yl)piperazine-1-carbonyl)pyridin-2-yl)-3-methyl-2,8-diazaspiro[4.5]decan-2-yl)benzonitrile], the DC50 on AR protein (setting [2]) is under 1 nM. Same read-out and setting: in the case of `C[C@H]1CC2(CCN(c3ccc(C(=O)N4CCN(C5CN(c6cc7c(cc6F)C(=O)N(C6CCC(=O)NC6=O)C7=O)C5)CC4)cn3)CC2)CN1c1ccc(C#N)c(Cl)c1` (stereo partly drawn) [Cpd. No. 507, 2-chloro-4-((3S)-8-(5-(4-(1-(2-(2,6-dioxopiperidin-3-yl)-6-fluoro-1,3-dioxoisoindolin-5-yl)azetidin-3-yl)piperazine-1-carbonyl)pyridin-2-yl)-3-methyl-2,8-diazaspiro[4.5]decan-2-yl)benzonitrile] it was 10 to 100 nM; in that of `C[C@H]1CC2(CCN(c3ccc(C(=O)N4CCN(C5CCN(c6ccc7c(c6)C(=O)N(C6CCC(=O)NC6=O)C7=O)CC5)CC4)cn3)CC2)CN1c1ccc(C#N)c(Cl)c1` (stereo partly drawn) [Cpd. No. 508, 2-chloro-4-((3S)-8-(5-(4-(1-(2-(2,6-dioxopiperidin-3-yl)-1,3-dioxoisoindolin-5-yl)piperidin-4-yl)piperazine-1-carbonyl)pyridin-2-yl)-3-methyl-2,8-diazaspiro[4.5]decan-2-yl)benzonitrile], under 1 nM. Regarding `C[C@H]1CC2(CCN(c3ccc(C(=O)N4CCN(C5CCN(c6ccc7c(c6)C(=O)N(C6CCC(=O)NC6=O)C7=O)CC5)CC4)cn3)CC2)CN1c1ccc(C#N)c(Cl)c1` (stereo partly drawn) [Cpd. No. 509, 2-chloro-4-((3S)-8-(5-(4-(1-(2-(2,6-dioxopiperidin-3-yl)-1,3-dioxoisoindolin-5-yl)piperidin-4-yl)piperazine-1-carbonyl)pyridin-2-yl)-3-methyl-2,8-diazaspiro[4.5]decan-2-yl)benzonitrile], the DC50 on AR protein (setting [2]) is under 1 nM. For `C[C@H]1CC2(CCN(c3ncc(C(=O)N4CCN(C5CN(c6ccc7c(c6)C(=O)N(C6CCC(=O)NC6=O)C7=O)C5)CC4)cn3)CC2)CN1c1ccc(C#N)c(Cl)c1` (stereo partly drawn) [Cpd. No. 512, 2-chloro-4-((3S)-8-(5-(4-(1-(2-(2,6-dioxopiperidin-3-yl)-1,3-dioxoisoindolin-5-yl)azetidin-3-yl)piperazine-1-carbonyl)pyrimidin-2-yl)-3-methyl-2,8-diazaspiro[4.5]decan-2-yl)benzonitrile], the DC50 at AR protein (setting [2]) is under 1 nM. The same measure, in the same setting: in the case of `C[C@H]1CC2(CCN(c3ncc(C(=O)N4CCN(C5CCN(c6ccc7c(c6)C(=O)N(C6CCC(=O)NC6=O)C7=O)CC5)CC4)cn3)CC2)CN1c1ccc(C#N)c(Cl)c1` (stereo partly drawn) [Cpd. No. 513, 2-chloro-4-((3S)-8-(5-(4-(1-(2-(2,6-dioxopiperidin-3-yl)-1,3-dioxoisoindolin-5-yl)piperidin-4-yl)piperazine-1-carbonyl)pyrimidin-2-yl)-3-methyl-2,8-diazaspiro[4.5]decan-2-yl)benzonitrile] it was under 1 nM. As for `C[C@H]1CC2(CCN(c3ncc(C(=O)N4CCC(N5CCN(c6ccc7c(c6)C(=O)N(C6CCC(=O)NC6=O)C7=O)CC5)CC4)cn3)CC2)CN1c1ccc(C#N)c(Cl)c1` (stereo partly drawn) [Cpd. No. 514, 2-chloro-4-((3S)-8-(5-(4-(4-(2-(2,6-dioxopiperidin-3-yl)-1,3-dioxoisoindolin-5-yl)piperazin-1-yl)piperidine-1-carbonyl)pyrimidin-2-yl)-3-methyl-2,8-diazaspiro[4.5]decan-2-yl)benzonitrile], on AR protein (setting [2]), the DC50 is under 1 nM.

As to `C[C@H]1CC2(CCN(c3ccc(C(=O)N4CC[C@@H](N5CCN(c6cc7c(cc6F)C(=O)N(C6CCC(=O)NC6=O)C7=O)CC5)C4)cc3)CC2)CN1c1ccc(C#N)c(Cl)c1` (stereo partly drawn) [Cpd. No. 515, 2-chloro-4-((3S)-8-(4-((3R)-3-(4-(2-(2,6-dioxopiperidin-3-yl)-6-fluoro-1,3-dioxoisoindolin-5-yl)piperazin-1-yl)pyrrolidine-1-carbonyl)phenyl)-3-methyl-2,8-diazaspiro[4.5]decan-2-yl)benzonitrile], the DC50 at AR protein (setting [2]) was 10 to 100 nM.

Consider `C[C@H]1CC2(CCN(c3ccc(C(=O)N4CC[C@H](N5CCN(c6ccc7c(c6)C(=O)N(C6CCC(=O)NC6=O)C7=O)CC5)C4)cc3)CC2)CN1c1ccc(C#N)c(Cl)c1` (stereo partly drawn) [Cpd. No. 516, 2-chloro-4-((3S)-8-(4-((3S)-3-(4-(2-(2,6-dioxopiperidin-3-yl)-1,3-dioxoisoindolin-5-yl)piperazin-1-yl)pyrrolidine-1-carbonyl)phenyl)-3-methyl-2,8-diazaspiro[4.5]decan-2-yl)benzonitrile], for which the DC50 at AR protein (setting [2]) is 1 to 10 nM. As to `C[C@H]1CC2(CCN(c3ccc(C(=O)N4CCN(CC5CCN(c6cc7c(cc6F)C(=O)N(C6CCC(=O)NC6=O)C7=O)CC5)CC4)nn3)CC2)CN1c1ccc(C#N)c(Cl)c1` (stereo partly shown) [compound 588], in data set [1] (PO 3 mg/kg vs IV 1 mg/kg), the F is reported as 54%. Besides, the AUC(0-t) in data set [1] (in vivo, iv, 1 mg/kg, IV, dose 1 mg/kg, read-out: IV AUC(0 − t)) worked out at 1080 ng·h/mL; in data set [1] (in vivo, po, 3 mg/kg, PO, dose 3 mg/kg, read-out: PO AUC(0 − t)) it was 1760 ng·h/mL. The clearance in data set [1] (in vivo, iv, 1 mg/kg, IV, dose 1 mg/kg, read-out: IV Cl (converted)) is 13.8 mL/min/kg. Moreover, the half-life in data set [1] (in vivo, iv, 1 mg/kg, IV, dose 1 mg/kg, read-out: IV T1/2 (converted)) was 9.5 h; in data set [1] (in vivo, po, 3 mg/kg, PO, dose 3 mg/kg, read-out: PO T1/2 (converted)), 5.9 h. Also, the Vd in data set [1] (in vivo, iv, 1 mg/kg, IV, dose 1 mg/kg, read-out: IV VSS) was determined as 6.76 L/kg. Moreover, the concentration in data set [1] (in vivo, po, 3 mg/kg) peaked (Cmax) at 347 ng/mL. For the same compound, the Tmax in data set [1] (in vivo, po, 3 mg/kg) stood at 1 h.
